# How the values were obtained:
# [1] = system: arecoline hydrolase activity in HLM; assay: Reaction phenotyping with esterase inhibitors in HLM; format: biochemical, human; conditions: HLM 0.2 mg/ml, arecoline 25 μM, 15 min; loperamide 1 μM, digitonin 20 μM, ethanol 41 mM, BNPP 10 μM, BW284c51 25 μM, ethopropazine 1 μM, vinblastine 10 μM
# [2] = system: arecoline hydrolase activity in HLC; assay: Reaction phenotyping with esterase inhibitors in HLC; format: biochemical, human; conditions: HLC 0.2 mg/ml, arecoline 25 μM, 15 min; inhibitor concentrations as in HLM
# [3] = Enzyme kinetics of hydrolysis; format: in vitro ADME, human; conditions: for EH: hepatic extraction ratio; for ClH: well-stirred model, Q 21 ml/min/kg; for Km at 15 min / CLint scaled / microsomal CLint: both, human, pH 7.4; for Km at 15 min: human liver microsomes (pooled); for CLint scaled / microsomal CLint: human liver microsomes
# [4] = Enzyme kinetics of hydrolysis; format: in vitro ADME, human; conditions: for Vmax: HLC 0.2 mg/ml, 15 min, 37 °C, rate of carboxylate metabolite formation; for Km at 15 min / CLint scaled / microsomal CLint: both, human, pH 7.4; for Km at 15 min: human liver cytosol (pooled); for CLint scaled / microsomal CLint: human liver cytosol
# [5] = Depletion of parent compound over 90 min in fresh or thermally-inactivated HLM; format: in vitro ADME, human; conditions: for parent level remaining: at 90 min
# [6] = Depletion of parent compound over 90 min in fresh or thermally-inactivated HLC; format: in vitro ADME, human
# [7] = Fraction unbound to plasma proteins by ultrafiltration; format: in vitro ADME; conditions: plasma protein in sodium phosphate buffer, pH 7.4
# plasma proteins = assay: as above; format: in vitro ADME; conditions: from fu.p
# [8] = Arecoline hydrolysis in human intestinal microsomes and cytosol; format: in vitro ADME
# human recombinant CES1 = target: T1, human recombinant CES1 (Homo sapiens, UniProt P23141); assay: Arecoline hydrolysis by human recombinant CES1; format: in vitro ADME; conditions: 5–40 min, CES protein 0.1–0.4 mg/ml
# T1 sequence (P23141 18-567): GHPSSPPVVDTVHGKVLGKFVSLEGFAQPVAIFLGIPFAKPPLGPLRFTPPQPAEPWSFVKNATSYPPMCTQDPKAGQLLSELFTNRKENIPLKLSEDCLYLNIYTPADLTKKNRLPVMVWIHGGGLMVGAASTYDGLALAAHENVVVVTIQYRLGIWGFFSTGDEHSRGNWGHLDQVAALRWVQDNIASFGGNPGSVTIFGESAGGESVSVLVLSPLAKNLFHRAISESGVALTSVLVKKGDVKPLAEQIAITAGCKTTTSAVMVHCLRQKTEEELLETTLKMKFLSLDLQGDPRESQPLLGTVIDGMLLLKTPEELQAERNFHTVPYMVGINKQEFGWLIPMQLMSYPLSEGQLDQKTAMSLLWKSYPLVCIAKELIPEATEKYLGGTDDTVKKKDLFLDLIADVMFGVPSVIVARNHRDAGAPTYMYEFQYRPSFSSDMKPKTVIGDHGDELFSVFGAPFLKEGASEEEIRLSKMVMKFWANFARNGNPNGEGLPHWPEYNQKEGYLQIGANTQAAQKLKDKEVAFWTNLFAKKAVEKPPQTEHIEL
# human recombinant CES2 = target: T2, human recombinant CES2 (Homo sapiens, UniProt O00748); assay: Arecoline hydrolysis by human recombinant CES2; format: in vitro ADME; conditions: 5–40 min, CES protein 0.1–0.4 mg/ml
# T2 sequence (O00748 27-559): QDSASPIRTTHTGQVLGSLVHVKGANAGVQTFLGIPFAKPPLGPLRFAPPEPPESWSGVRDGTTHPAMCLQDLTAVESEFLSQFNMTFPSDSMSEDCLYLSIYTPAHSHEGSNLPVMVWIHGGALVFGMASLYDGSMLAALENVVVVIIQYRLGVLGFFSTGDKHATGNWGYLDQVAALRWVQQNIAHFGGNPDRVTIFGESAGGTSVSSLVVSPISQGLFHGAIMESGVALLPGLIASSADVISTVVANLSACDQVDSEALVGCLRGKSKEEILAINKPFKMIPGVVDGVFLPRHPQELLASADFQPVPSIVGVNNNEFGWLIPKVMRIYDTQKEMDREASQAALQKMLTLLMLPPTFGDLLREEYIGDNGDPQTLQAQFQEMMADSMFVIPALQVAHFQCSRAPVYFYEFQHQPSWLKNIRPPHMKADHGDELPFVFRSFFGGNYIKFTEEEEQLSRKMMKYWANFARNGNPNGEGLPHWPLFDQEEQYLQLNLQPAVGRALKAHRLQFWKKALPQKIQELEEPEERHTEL
# [9] = subjects with Alzheimer's disease treated with arecoline; cited from earlier work
# [10] = mouse liver homogenate, cited from earlier work
# [11] = both, human, human liver microsomes, pH 7.4
# [12] = both, human, human liver cytosol, pH 7.4
structure (smiles),measurement,setting,value
"O=[N+]([O-])c1ccc(OP(=O)(O)Oc2ccc([N+](=O)[O-])cc2)cc1 [BNPP, bis(4-nitrophenyl)-phosphate]",percent activity of arecaidine formation compared to control,[1],14.4%
same,change in mean percent activity of arecoline hydrolase compared to control,[2],significant reductions
"C=CC[N+](C)(C)c1ccc(CCC(=O)CCc2ccc([N+](C)(C)CC=C)cc2)cc1.[Br-].[Br-] [BW284c51, 1,5-Bis(4-allyldimethylammoniumphenyl)pentan-3-one dibromide]",percent activity of arecaidine formation compared to control,[1],103%
same,change in mean percent activity of arecoline hydrolase compared to control,[2],no significant change
COC(=O)C1=CCCN(C)C1 [arecoline],EH,[3]; HLM,0.733
same,ClH,[3]; HLM,0.924 L/h/kg
same,Km at 15 min,[3],8.68 mM
same,CLint scaled,[3],3.47 L/h/kg
same,microsomal CLint,[3],90.3 µL/min/mg
same,extraction ratio class,[3]; from EH in HLM,high (> 0.7)
same,Vmax,[4],118 nmol/min/mg protein
same,Km at 15 min,[4],9.11 mM
same,CLint scaled,[4],0.696 L/h/kg
same,microsomal CLint,[4],12.9 µL/min/mg
same,parent level remaining,[5]; HLM,5.6 % control
same,half-life at 10 μM,[5]; [11],15.7 min
same,half-life at 100 μM,[5]; [11],16.6 min
same,half-life at 1000 μM,[5]; [11],17.2 min
same,arecoline concentration remaining in HLC samples compared to HLM samples,"[6]; at 90 min, initial arecoline 10 μM",approximately 12.8 fold
same,half-life at 10 μM,[6]; [12],97 min
same,half-life at 100 μM,[6]; [12],99.8 min
same,half-life at 1000 μM,[6]; [12],126 min
same,fraction unbound at 15 min,[7],0.978
same,amount available for distribution to peripheral tissues,plasma proteins,~ 98%
same,amount predicted to bind plasma proteins,plasma proteins,~ 2%
same,arecoline hydrolysis in intestinal sub-cellular fractions,[8],no arecoline hydrolysis
same,hydrolysis by CES1,human recombinant CES1,sub-stantial hydrolysis
same,hydrolysis by CES2,human recombinant CES2,no hydrolysis
same,average elimination T1/2 in plasma,[9],10.5 min
same,depletion,[10]; 30 min incubation,~100%
same,maximum rate of arecoline depletion,[10],4.7 nmol/min/mg protein
C[C@@H]1CC[C@@]2(OC1)O[C@H]1[C@@H](O)[C@H]3[C@@H]4CC[C@H]5C[C@@H](O[C@@H]6O[C@H](CO)[C@H](O[C@@H]7O[C@H](CO)[C@@H](O)[C@H](O[C@@H]8OC[C@@H](O)[C@H](O)[C@H]8O)[C@H]7O[C@@H]7O[C@H](CO)[C@H](O)[C@H](O[C@@H]8O[C@H](CO)[C@@H](O)[C@H](O)[C@H]8O)[C@H]7O)[C@H](O)[C@H]6O)[C@H](O)C[C@]5(C)[C@H]4CC[C@]3(C)[C@H]1[C@@H]2C [digitonin],percent activity of arecaidine formation compared to control,[1],70%
same,change in mean percent activity of arecoline hydrolase compared to control,[2],significant reductions
CCO [ethanol],percent activity of arecaidine formation compared to control,[1],44.6%
same,change in mean percent activity of arecoline hydrolase compared to control,[2],significant reductions
CCN(CC)C(C)CN1c2ccccc2Sc2ccccc21 (centres unmarked) [ethopropazine],percent activity of arecaidine formation compared to control,[1],102%
same,change in mean percent activity of arecoline hydrolase compared to control,[2],no significant change
COC(=O)C1=CCCNC1 [guvacoline],ClH less compared to arecoline,[3]; HLM,96%
same,Clint.invivo less compared to arecoline,[3]; HLM,99%
same,EH less compared to arecoline,[3]; HLM,96%
same,Vmax less compared to arecoline,[3]; HLM,96%
same,Vmax,"[3]; HLM 0.2 mg/ml, 15 min, 37 °C, rate of carboxylate metabolite formation",35 nmol/min/mg protein
same,EH,[3]; HLM,0.0306
same,ClH,[3]; HLM,0.0386 L/h/kg
same,Km at 15 min,[3],34.3 mM
same,CLint scaled,[3],0.0392 L/h/kg
same,microsomal CLint,[3],1.02 µL/min/mg
same,Vmax,[4],14.4 nmol/min/mg protein
same,Km at 15 min,[4],27.8 mM
same,CLint scaled,[4],0.028 L/h/kg
same,microsomal CLint,[4],0.518 µL/min/mg
same,depletion over time,"[5]; HLM, all concentrations (0.01, 0.1, 1.0 mM), 90 min",only minimal depletion
same,parent level remaining,[5]; HLM,98 % control
same,depletion over time,"[6]; HLC, all tested concentrations, data not shown",only minimal depletion
same,fraction unbound at 15 min,[7],0.998
CN(C)C(=O)C(CCN1CCC(O)(c2ccc(Cl)cc2)CC1)(c1ccccc1)c1ccccc1 [loperamide],percent activity of arecaidine formation compared to control,[1],100.2%
same,change in mean percent activity of arecoline hydrolase compared to control,[2],no significant change
CC[C@]1(O)C[C@@H]2CN(CCc3c([nH]c4ccccc34)[C@@](C(=O)OC)(c3cc4c(cc3OC)N(C)[C@H]3[C@@](O)(C(=O)OC)[C@H](OC(C)=O)[C@]5(CC)C=CCN6CC[C@]43[C@@H]65)C2)C1 [vinblastine],percent activity of arecaidine formation compared to control,[1],100%
same,change in mean percent activity of arecoline hydrolase compared to control,[2],no significant change

# From publication PMC11974249 (Drug metabolism and pharmacokinetics, 2024)
